Four compounds from US4421911A, “Deoxydesmycosin” (priority 1981, dated 1983) can be followed below.

By MIC is commonly meant the smallest concentration in the dilution series that meets the test's criterion for growth inhibition.

What all share (type): cell-based
Test [1] concerns Staphylococcus aureus 0127. The experiment in a line: Minimum inhibitory concentration (MIC), Staphylococcus aureus 0127. From the text: (§1) The minimum inhibitory concentration (MIC) of the compounds of the present invention is illustrated in Table 1.
(§2) *Macrolide registant strain A group (clinical isolates of erythromycin,
(§3) oleandomycin and 16membered macrolide antibiotics registant strains)

In test [2] the test system is Streptococcus pyogenes 1022. Description: Minimum inhibitory concentration (MIC), Streptococcus pyogenes 1022.
Source text: as §1, §2, §3

The subject of test [3] is Staphylococcus aureus MS353. Description: Minimum inhibitory concentration (MIC), Staphylococcus aureus MS353.
The test system of test [4] is Staphylococcus aureus 0116. The experiment in a line: Minimum inhibitory concentration (MIC), Staphylococcus aureus 0116.
Source text: as §1, §2, §3

The test system of test [5] is Staphylococcus aureus MS353AO. The experiment in a line: Minimum inhibitory concentration (MIC), Staphylococcus aureus MS353AO. The following applies: macrolide resistant strain A group.
Source text: as §1, §2, §3

For test [6], the system named is Streptococcus pyogenes N.Y.5. The experiment in a line: Minimum inhibitory concentration (MIC), Streptococcus pyogenes N.Y.5.
Test [7] relates to Staphylococcus aureus ATCC6538p. Description: Minimum inhibitory concentration (MIC), Staphylococcus aureus ATCC6538p.
Test [8] relates to Staphylococcus aureus 0119. Description: Minimum inhibitory concentration (MIC), Staphylococcus aureus 0119.
Source text: as §1, §2, §3

The mark [9] stands for this setting: Staphylococcus aureus 0127, macrolide resistant strain A group, read-out: MIC.
[10] abbreviates: Streptococcus pyogenes 1022, macrolide resistant strain A group, read-out: MIC.
Setting [11] is: Staphylococcus aureus 0116, macrolide resistant strain A group, read-out: MIC.

≈ marks a conversion by molar mass, not a printed value. Read-outs that look alike come from different tables or passages of the source.

As for `CCC1OC(=O)CC(O)C(C)C(OC2OC(C)CC(N(C)C)C2O)C(CC=O)CC(C)C(=O)/C=C/C(C)=C/C1COC1OC(C)CC(OC)C1OC` (centres unmarked) [R1 = H, R2 = H, 4', 4"-di-deoxy-desmycosin], the MIC in test [1] (setting [9]) is 12.5 µg/mL (≈ 16.9 µM); in test [2] (setting [10]), 25 µg/mL (≈ 33.8 µM); in test [3], 0.2 µg/mL (≈ 0.27 µM); in test [4] (setting [11]), 3.1 µg/mL (≈ 4.19 µM); in test [5], 50 µg/mL (≈ 67.6 µM); in test [6], at most 0.05 µg/mL. The MIC in test [7] is 0.4 µg/mL (≈ 0.541 µM); in test [8] (Staphylococcus aureus, 0119) it was 12.5 µg/mL (≈ 16.9 µM).

On to `CCC1OC(=O)CC(O)C(C)C(OC2OC(C)C(O)C(N(C)C)C2O)C(CC=O)CC(C)C(=O)/C=C/C(C)=C/C1COC1OC(C)CC(OC)C1OC` (centres unmarked) [R1 = OH, R2 = H, 4"-deoxy-desmycosin], for which the MIC in test [1] (Staphylococcus aureus, 0127) was 6.3 µg/mL (≈ 8.33 µM); in test [2] (setting [10]) it was 3.1 µg/mL (≈ 4.1 µM); in test [3], 0.4 µg/mL (≈ 0.529 µM); in test [4] (setting [11]) it was 1.6 µg/mL (≈ 2.12 µM); in test [5] it was 6.3 µg/mL (≈ 8.33 µM); in test [6], at most 0.05 µg/mL. Besides, the MIC in test [7] was 0.4 µg/mL (≈ 0.529 µM); in test [8] (Staphylococcus aureus 0119, macrolide resistant strain A group, read-out: MIC), 1.6 µg/mL (≈ 2.12 µM).

Turning to `CC[C@H]1OC(=O)C[C@@H](O)[C@H](C)[C@@H](O[C@@H]2O[C@H](C)[C@@H](O[C@H]3C[C@@](C)(O)[C@@H](O)[C@H](C)O3)[C@H](N(C)C)[C@H]2O)[C@@H](CC=O)C[C@@H](C)C(=O)/C=C/C(C)=C/[C@@H]1CO[C@@H]1O[C@H](C)[C@@H](O)[C@@H](OC)[C@H]1OC` [Tylosin, tylosin, reference compound], the MIC is above 100 µg/mL in test [1] (Staphylococcus aureus, 0127); above 100 µg/mL in test [2] (Streptococcus pyogenes, 1022); 1.6 µg/mL (≈ 1.75 µM) in test [3]; above 100 µg/mL in test [4] (Staphylococcus aureus, 0116); above 100 µg/mL in test [5]; 0.2 µg/mL (≈ 0.218 µM) in test [6]. Besides, the MIC was 0.8 µg/mL (≈ 0.873 µM) in test [7] and above 100 µg/mL in test [8] (Staphylococcus aureus, 0119).

Regarding `CCC1OC(=O)CC(O)C(C)C(OC2OC(C)CC(N(C)C)C2O)C(CC=O)CC(C)C(=O)/C=C/C(C)=C/C1COC1OC(C)C(O)C(OC)C1OC` (centres unmarked) [R1 = H, R2 = OH, 4'-deoxy-desmycosin], the MIC in test [1] (setting [9]) came out at 12.5 µg/mL (≈ 16.5 µM); in test [2] (setting [10]) it was 3.1 µg/mL (≈ 4.1 µM); in test [3], 0.8 µg/mL (≈ 1.06 µM); in test [4] (setting [11]), 3.1 µg/mL (≈ 4.1 µM); in test [5] it was 50 µg/mL (≈ 66.1 µM); in test [6], 0.1 µg/mL (≈ 0.132 µM). Besides, the MIC in test [7] came to 0.8 µg/mL (≈ 1.06 µM); in test [8] (Staphylococcus aureus, 0119), 6.3 µg/mL (≈ 8.33 µM).
